Measurements from ChEMBL document CHEMBL1201862, “PubChem BioAssay data set” (2004).
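Step 1: Grow cells in 96-well plates. Step 2: Expose to compound for 48 hours at 5 concentrations. Step 3: Interpolate endpoints linearly; if unreached, use highest concentration. GI50: concentration for 50% inhibition of growth.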 Activity calls are given as the source filed them. No stated cut-off is given here; in the data, active = GI50 up to about 1.1 µM and inactive = higher.

Tests used:
Experiment in all cases: NCI tumour cell line growth inhibition, 48 h
SF-539 = test system: SF-539
SK-OV-3 = test system: SK-OV-3
UACC-257 = test system: UACC-257
NCI-H460 = test system: NCI-H460
SNB-19 = test system: SNB-19
MOLT-4 = test system: MOLT-4
NCI-H23 = test system: NCI-H23
A549 = test system: A549
OVCAR-8 = test system: OVCAR-8
KM12 = test system: KM12
SNB-75 = test system: SNB-75
OVCAR-3 = test system: OVCAR-3
SN12C = test system: SN12C
EKVX = test system: EKVX
NCI-H226 = test system: NCI-H226
M14 = test system: M14
UACC-62 = test system: UACC-62
786-0 = test system: 786-0

Measured: GI50

CCCN(CCC)C(=O)Cc1c2n(c3ccccc13)Cc1ccccc1-2
inactive: SF-539 > 100 µM | SK-OV-3 > 100 µM | UACC-257 > 100 µM | NCI-H460 63.7 µM | SNB-19 > 100 µM | MOLT-4 > 100 µM | NCI-H23 45.7 µM | A549 27.9 µM | OVCAR-8 > 100 µM | KM12 > 100 µM | SNB-75 6.62 µM | OVCAR-3 > 100 µM | SN12C > 100 µM | EKVX > 100 µM | NCI-H226 > 100 µM | M14 > 100 µM | UACC-62 21.1 µM | 786-0 57 µM

O=C(Nc1ccc([N+](=O)[O-])cc1[N+](=O)[O-])C(=O)C(C(=O)c1ccc(Cl)c(Cl)c1)C1OC(=O)c2ccccc21 (stereo not given)
inactive: SF-539 > 10 µM | SK-OV-3 23.2 µM | UACC-257 22.6 µM | NCI-H460 > 10 µM | SNB-19 18.6 µM | MOLT-4 14.6 µM | NCI-H23 17.3 µM | A549 26.1 µM | OVCAR-8 15.2 µM | KM12 18.4 µM | SNB-75 > 100 µM | OVCAR-3 27.7 µM | SN12C 24.1 µM | EKVX 22.1 µM | NCI-H226 12.4 µM | M14 > 10 µM | UACC-62 16.3 µM | 786-0 18.5 µM

NC(=O)c1c(-c2ccccc2)c(-c2ccccc2)cc2c(=O)c3ccccc3[nH]c12
inactive: SF-539 17.5 µM | SK-OV-3 25.3 µM | UACC-257 40.6 µM | NCI-H460 22.2 µM | SNB-19 21 µM | MOLT-4 16.4 µM | NCI-H23 17.5 µM | A549 23.8 µM | OVCAR-8 20.8 µM | KM12 21.8 µM | SNB-75 23.6 µM | OVCAR-3 23.1 µM | SN12C 40 µM | EKVX 41.2 µM | M14 33.2 µM | UACC-62 25.5 µM | 786-0 8.53 µM

O=C(O)[C@H](NS(=O)(=O)c1ccc(F)cc1)c1ccccc1
inactive: SF-539 > 100 µM | SK-OV-3 > 100 µM | UACC-257 > 100 µM | NCI-H460 > 100 µM | SNB-19 > 100 µM | MOLT-4 > 100 µM | NCI-H23 > 100 µM | A549 > 100 µM | OVCAR-8 > 100 µM | SNB-75 > 100 µM | OVCAR-3 > 100 µM | SN12C > 100 µM | EKVX > 100 µM | NCI-H226 > 100 µM | M14 > 100 µM | UACC-62 > 100 µM | 786-0 > 100 µM

O=[N+]([O-])c1ccc(C2=Nn3cnnc3SC2)o1
inactive: SF-539 17.6 µM | SK-OV-3 > 10 µM | UACC-257 15.5 µM | NCI-H460 10.6 µM | SNB-19 29 µM | MOLT-4 20 µM | NCI-H23 > 10 µM | A549 20.6 µM | OVCAR-8 20.1 µM | KM12 18.3 µM | SNB-75 25.3 µM | OVCAR-3 17.1 µM | SN12C 16.5 µM | NCI-H226 26.4 µM | M14 15.1 µM | UACC-62 > 10 µM | 786-0 17.3 µM

Cc1nc2ccccc2nc1CC(=O)C(=O)Nc1ccc(Cl)cc1Cl
inactive: SF-539 > 100 µM | SK-OV-3 > 100 µM | UACC-257 > 100 µM | NCI-H460 > 100 µM | SNB-19 > 100 µM | MOLT-4 > 100 µM | NCI-H23 > 100 µM | A549 > 100 µM | OVCAR-8 > 100 µM | KM12 > 100 µM | SNB-75 > 100 µM | OVCAR-3 > 100 µM | SN12C > 100 µM | EKVX > 100 µM | M14 > 100 µM | UACC-62 > 100 µM | 786-0 > 100 µM

C/C=N\N1C(=O)c2ccccc2C1=O
inactive: SF-539 > 100 µM | UACC-257 > 100 µM | NCI-H460 > 100 µM | SNB-19 > 100 µM | MOLT-4 > 100 µM | NCI-H23 > 100 µM | A549 > 100 µM | OVCAR-8 > 100 µM | KM12 > 100 µM | SNB-75 > 100 µM | OVCAR-3 > 100 µM | SN12C > 100 µM | EKVX > 100 µM | NCI-H226 > 100 µM | M14 > 100 µM | UACC-62 > 100 µM | 786-0 > 100 µM

CC(=O)Nc1[nH]n(C)c(=O)c1-c1nnc(C)s1
inactive: SF-539 > 100 µM | SK-OV-3 > 100 µM | UACC-257 > 100 µM | NCI-H460 > 100 µM | SNB-19 > 100 µM | MOLT-4 > 100 µM | NCI-H23 > 100 µM | A549 > 100 µM | OVCAR-8 > 100 µM | KM12 > 100 µM | SNB-75 > 100 µM | OVCAR-3 > 100 µM | SN12C > 100 µM | EKVX > 100 µM | NCI-H226 > 100 µM | M14 > 100 µM | 786-0 > 100 µM

O/N=C1/C(=C/c2ccc(OCc3ccccc3)cc2)CCCC1C(NO)c1ccc(OCc2ccccc2)cc1 (stereo not given)
inactive: SF-539 24.9 µM | SK-OV-3 > 100 µM | UACC-257 10 µM | NCI-H460 14.2 µM | SNB-19 80.9 µM | MOLT-4 5.6 µM | NCI-H23 12.7 µM | A549 > 100 µM | OVCAR-8 26.7 µM | KM12 24.2 µM | SNB-75 34 µM | OVCAR-3 14.2 µM | SN12C 3.31 µM | EKVX 5.43 µM | NCI-H226 > 100 µM | M14 4.98 µM | 786-0 18.5 µM

COC(=O)C(=NNc1ccccc1[N+](=O)[O-])C(=O)OC
inactive: SF-539 > 100 µM | SK-OV-3 > 100 µM | UACC-257 > 100 µM | NCI-H460 > 100 µM | SNB-19 > 100 µM | MOLT-4 > 100 µM | NCI-H23 > 100 µM | A549 > 100 µM | OVCAR-8 > 100 µM | KM12 > 100 µM | SN12C > 100 µM | EKVX > 100 µM | NCI-H226 > 100 µM | 786-0 > 100 µM

CC1OC(OC2C(CO)OC(O[C@H]3CC[C@@]4(C)C(=CC[C@H]5[C@@H]6C[C@@H]7O[C@]8(CC[C@@H](C)CN8)[C@@H](C)[C@@H]7[C@@]6(C)CC[C@@H]54)C3)C(O)C2O)C(O)C(O)C1O (stereo not given in full)
inactive: SF-539 > 100 µM | SK-OV-3 > 100 µM | UACC-257 > 100 µM | NCI-H460 > 100 µM | SNB-19 > 100 µM | MOLT-4 > 100 µM | NCI-H23 > 100 µM | A549 > 100 µM | OVCAR-8 > 100 µM | KM12 > 100 µM | SNB-75 42.1 µM | OVCAR-3 > 100 µM | SN12C > 100 µM | EKVX 76 µM | M14 > 100 µM | UACC-62 > 100 µM | 786-0 > 100 µM

Cc1cc2nc3c(=O)[nH]c(=O)nc-3n(CC(O)C(O)C(O)CO)c2cc1N (stereo not given)
inactive: SF-539 > 100 µM | SK-OV-3 > 100 µM | NCI-H460 > 100 µM | SNB-19 > 100 µM | MOLT-4 > 100 µM | NCI-H23 > 100 µM | A549 > 100 µM | OVCAR-8 > 100 µM | KM12 > 100 µM | SNB-75 > 100 µM | OVCAR-3 > 100 µM | SN12C > 100 µM | EKVX > 100 µM | NCI-H226 > 100 µM | M14 > 100 µM | UACC-62 > 100 µM | 786-0 > 100 µM

NC(=S)N/N=C(/CCN1CCCC1)CC(C1=C(O)C2=CCCCC2OC1=O)c1ccccc1 (stereo not given)
inactive: SF-539 > 100 µM | SK-OV-3 > 100 µM | UACC-257 > 100 µM | NCI-H460 > 100 µM | SNB-19 > 100 µM | NCI-H23 > 100 µM | A549 > 100 µM | OVCAR-8 > 100 µM | KM12 > 100 µM | SNB-75 > 100 µM | OVCAR-3 > 100 µM | SN12C > 100 µM | EKVX > 100 µM | NCI-H226 > 100 µM | M14 > 100 µM | UACC-62 > 100 µM | 786-0 > 100 µM

COc1ccc([N+]2=NC(c3ccc([N+](=O)[O-])cc3)=NN(c3ccccc3)C2)cc1
inactive: UACC-257 30.1 µM | NCI-H460 25.9 µM | SNB-19 71.9 µM | MOLT-4 21.6 µM | NCI-H23 55.8 µM | A549 71 µM | OVCAR-8 > 10 µM | OVCAR-3 42.5 µM | SN12C > 100 µM | EKVX 44.4 µM | NCI-H226 52.4 µM | 786-0 > 100 µM

CC(C)=CC(=O)CC(=O)C(=O)Nc1ccc(C)c(C)c1
inactive: SF-539 > 100 µM | SK-OV-3 > 100 µM | UACC-257 > 100 µM | SNB-19 > 100 µM | MOLT-4 > 100 µM | NCI-H23 > 100 µM | A549 > 100 µM | KM12 > 100 µM | SNB-75 > 100 µM | OVCAR-3 > 100 µM | SN12C > 100 µM | EKVX > 100 µM | NCI-H226 > 100 µM | M14 > 100 µM | UACC-62 > 100 µM | 786-0 > 100 µM

Cc1cccc(-n2c(N)c(-c3nc4ccccc4[nH]3)sc2=S)c1
inactive: SF-539 20.4 µM | SK-OV-3 47.9 µM | UACC-257 28.6 µM | SNB-19 36.6 µM | MOLT-4 20.6 µM | NCI-H23 49.8 µM | A549 28.2 µM | OVCAR-8 28.4 µM | KM12 22 µM | SNB-75 50 µM | OVCAR-3 25 µM | SN12C 25.3 µM | EKVX 48.4 µM | NCI-H226 32.7 µM | M14 25.3 µM | UACC-62 18.4 µM | 786-0 24.4 µM
